According to US20160095867A1, “BET INHIBITION THERAPY FOR HEART DISEASE” (DANA-FARBER CANCER INSTITUTE, INC., priority 2013, published 2016):

Assays:
[1] = Treadmill endurance exercise capacity in mice; type: in vivo, mouse; details: JQ1 50 mg/kg/day IP, 2-3 weeks (17 days)
Excerpt: (§1) For transthoracic echocardiography, mice were anesthetized with 1% inhalational isofluorane and imaged using the Vevo 770 High Resolution Imaging System (Visual Sonics, Inc.) and the RMV-707B 30 MHz probe. Measurements were obtained from M-mode sampling and integrated EKV images taken in the LV short axis at the mid-papillary level (Haldar et al., 2010). Measurements of pressure gradients across the constricted portion of the aorta were obtained by high frequency Doppler as previously described (Liu et al., 2012). Conscious tail-vein systolic blood pressure was measured using the BP2000 Blood Pressure Analysis System (Visitech Systems, Inc.) as recommended by the manufacturer. To allow mice to adapt to the apparatus, we performed daily blood pressure measurements for one week prior to beginning experiments. Treadmill endurance exercise testing was performed on a motorized mouse treadmill (Columbus Instruments) as previously described (Haldar et al., 2012).

mice subject to TAC [2] = test: Transverse aortic constriction (TAC) model, JQ1 begun 1.5 days after TAC; type: in vivo, mouse
Description: JQ1 was synthesized and purified in the laboratory of Dr. James Bradner (DFCI) as previously published (Filippakopoulos et al., 2010). For in vivo experiments, a stock solution (50 mg/mL in DMSO) was diluted to a working concentration of 5 mg/mL in aqueous carrier (10% hydroxypropyl β-cyclodextrin; Sigma C0926) using vigorous vortexing. Mice were injected at a dose of 50 mg/kg given intraperitoneally once daily. Vehicle controls were given an equal amount of DMSO in carrier solution. All solutions were prepared and administered using sterile technique. For in vitro experiments, JQ1 and other BET inhibitors were dissolved in DMSO and administered to cells at indicated concentrations using an equal volume of DMSO as control. The BET inhibitors used were as follows: iBET, iBET-151, RVX-208, and PF-1.
(§2) All mice were C57Bl/6J littermate males aged 10-12 weeks. For TAC, mice were anesthetized with ketamine/xylazine, mechanically ventilated (Harvard apparatus), and subject to thoracotomy. The aortic arch was constricted between the left and right carotid arteries using a 7.0 silk suture and a 27-gauge needle as previously described (Hu et al., 2003). In our hands, this protocol a consistent peak pressure gradient of approximately 50 mmHg across the constricted portion of the aorta. For PE infusion, mice were anesthetized using continuous 1% inhalational isofluorane. Mini-osmotic pumps (Alzet 2004, Durect Corp.) were filled with phenylephrine hydrochloride (PE, Sigma) or vehicle (normal saline) and implanted subcutaneously on the dorsal aspect of the mouse. PE was infused at a dose of 75 mg/kg/day for 17 days. Injections of JQ1 or vehicle were begun 1.5 days postoperatively.
as §1
Short-axis heart sections from the mid-ventricle were fixed in PBS/4% paraformaldehyde and embedded in paraffin. Cardiomyocyte cross sectional area was determined by staining with rhodamine-conjugated wheat-germ agglutinin (Vector Laboratories RL-1022) as quantified as previously described (Froese et al., 2011). Fibrosis was visualized using Masson's Trichrome staining kit (Biocare medical) with quantification of fibrotic area as previously described (Song et al., 2010). Terminal deoxynucleotidyl transferase dUTP nick-end label (TUNEL) staining and quantification was performed as previously described (Song et al., 2010) using the ApopTag Plus kit (Millipore) according to manufacturer's instructions. Myocardial capillary staining was performed in frozen LV sections using anti-PECAM-1 antibodies (EMD Millipore cat#CBL-1337) as previously described (Haldar et al., 2010).

[3] = Conscious tail-vein systolic blood pressure in mice; type: in vivo, mouse; details: JQ1 50 mg/kg/day IP, 17 days
Excerpt: as §1

mice with PE infusion = test: Chronic phenylephrine (PE) infusion model of cardiac hypertrophy; type: in vivo, mouse; details: PE 75 mg/kg/day minipump, JQ1 from 1.5 days after installation
Excerpt: as §2
For transthoracic echocardiography, mice were anesthetized with 1% inhalational isofluorane and imaged using the Vevo 770 High Resolution Imaging System (Visual Sonics, Inc.) and the RMV-707B 30 MHz probe. Measurements were obtained from M-mode sampling and integrated EKV images taken in the LV short axis at the mid-papillary level (Haldar et al., 2010). […] Conscious tail-vein systolic blood pressure was measured using the BP2000 Blood Pressure Analysis System (Visitech Systems, Inc.) as recommended by the manufacturer. […]

mice subject to TAC [4] = test: TAC model with pre-established pathology, JQ1 begun day 18 post-TAC; type: in vivo, mouse
Excerpt: Adult mice were subjected to pressure overload using transverse aortic constriction (TAC). JQ1 or vehicle was begun on day 18 post-TAC, a time point when significant pathology has already developed (FIG. 11). […] (N=6-12 per group). […] For example, patients typically present with pre-existing or established cardiac hypertrophy and/or heart failure.

[5] = tested on: Neonatal rat ventricular cardiomyocytes (NRVM); test: Doxorubicin mediated apoptosis in cultured cardiomyocytes (TUNEL); type: cell-based; details: JQ1 250 nM 3 hours, then Doxo 1 μM 24 hours
Description: Doxorubicin (Doxo) is an anthracycline compound commonly used as cytotoxic chemotherapy for cancer. Doxo causes dose-dependent toxicity to cardiomyocytes and can cause cardiac enlargement, fibrosis and heart failure in patients. Cardiotoxicity is dose-limiting for anthracyclines such as Doxorubicin and Daunorubicin. […] Neonatal rat ventricular cardiomyocytes (NRVM) were treated with or without JQ1 (250 nM) for 3 hours, followed by treatment±Doxo (1 μM) for another 24 hours. Cells were assayed for apoptosis by TUNEL staining and nuclei were counterstained with DAPI.

[6] = tested on: primary Rat Aortic Smooth Muscle Cells (RASMC); test: PDGF-bb induced pathologic smooth muscle cell activation; type: cell-based; details: JQ1 500 nM, PDGF-bb 10 ng/mL
Description: All experiments were performed with primary Rat Aortic Smooth Muscle Cells (RASMC), PDGF-bb (10 ng/mL), and JQ1 (500 nM). JQ1 blocks hallmark features of pathologic smooth muscle activation in response to the agonist PDGF-bb such as (FIG. 14A) proliferation (quantified by radiolabeled thymidine incorporation), (FIG. 14B) migration (quantified using a Transwell migration assay), and (FIG. 14C) pathologic gene induction (qRT-PCR shown for Ptgs2/Cox2). These findings support the efficacy of BET bromodomain inhibition against pathologic smooth muscle growth (n=3-6 per group; *p<0.05 vs. vehicle; **p<0.05 vs. PDGF-bb).

[7] = adult mice, 50 mg/kg/day; cited from earlier work
[8] = JQ1 50 mg/kg/day IP from 1.5 days after TAC, out to 4 weeks

Cc1sc2c(c1C)C(c1ccc(Cl)cc1)=N[C@@H](CC(=O)OC(C)(C)C)c1nnc(C)n1-2 [JQ1]
endurance exercise capacity (time to exhaustion) [1]: preserved endurance exercise capacity
tolerability during TAC (activity, mortality, weight loss vs vehicle) (mice subject to TAC [2]; JQ1 50 mg/kg/day): well tolerated
TAC-mediated LV cavity dilation (echocardiography) (mice subject to TAC [2]; [8]): protected against
TAC-mediated LV systolic dysfunction (echocardiography) (mice subject to TAC [2]; [8]): protected against
TAC-mediated LV wall thickening (echocardiography) (mice subject to TAC [2]; [8]): protected against
pathologic cardiomegaly (HW/BW) (mice subject to TAC [2]; JQ1 50 mg/kg/day, 4 weeks TAC): inhibited
pulmonary congestion (LW/BW) (mice subject to TAC [2]; JQ1 50 mg/kg/day, 4 weeks TAC): inhibited
myocardial expression of canonical hypertrophic marker genes (mice subject to TAC [2]; JQ1 50 mg/kg/day, after TAC): inhibited
effect on LV structure or function in sham treated mice (mice subject to TAC [2]; JQ1 50 mg/kg/day, sham surgery): no adverse effect
TAC-mediated induction of c-Myc expression in vivo (mice subject to TAC [2]; TAC mouse hearts, qRT-PCR): no effect
evolution of pathological gene expression program in the heart (microarray GEP) (mice subject to TAC [2]; TAC, 3, 11 and 28 days): suppressed
apoptotic cell death (TUNEL) (mice subject to TAC [2]; heart tissue, 4 weeks of TAC): significantly attenuated
capillary rarefaction (PECAM-1) (mice subject to TAC [2]; heart tissue, 4 weeks of TAC): significantly attenuated
development of cardiomyocyte hypertrophy (wheat germ agglutinin, cardiomyocyte area) (mice subject to TAC [2]; heart tissue, 4 weeks of TAC): significantly attenuated
myocardial fibrosis (Masson's Trichrome) (mice subject to TAC [2]; heart tissue, 4 weeks of TAC): significantly attenuated
systemic blood pressure [3]: does not affect
LV systolic function during chronic PE infusion (mice with PE infusion): without any compromise
development of pathologic cardiac hypertrophy during chronic PE infusion (mice with PE infusion): potently suppressed
progression of LV cavity dilation (mice subject to TAC [4]): significantly attenuates
progression of LV systolic dysfunction (mice subject to TAC [4]): significantly attenuates
progression of LV wall thickening (mice subject to TAC [4]): significantly attenuates
progression of cardiomegaly (mice subject to TAC [4]): significantly attenuates
Doxo induced cardiotoxicity (apoptosis, TUNEL positive nuclei) [5]: blocks
PDGF-bb induced migration (Transwell migration assay) [6]: blocks
PDGF-bb induced pathologic gene induction (qRT-PCR, Ptgs2/Cox2) [6]: blocks
PDGF-bb induced proliferation (radiolabeled thymidine incorporation) [6]: blocks
toxicity on chronic administration [7]: without significant toxicity
